How the values were obtained:
[1] = target: Dual specificity mitogen-activated protein kinase kinase 1 (Homo sapiens) (UniProt Q02750); details: Compound concentration 1000.0 nM
[2] = test system: Receptor-type tyrosine-protein kinase FLT3 (Homo sapiens), P36888 [UNDEFINED MUTATION]; details: Compound concentration 1000.0 nM
[3] = target: Cyclin-dependent kinase 2 (Homo sapiens) (UniProt P24941); details: Compound concentration 1000.0 nM
[4] = target: Protein-tyrosine kinase 6 (Homo sapiens) (UniProt Q13882); details: Compound concentration 1000.0 nM
[5] = target: Serine/threonine-protein kinase PLK3 (Homo sapiens) (UniProt Q9H4B4); details: Compound concentration 1000.0 nM
[6] = target: Ribosomal protein S6 kinase alpha-2 (Homo sapiens) (UniProt Q15349); details: Compound concentration 1000.0 nM
[7] = target: Death-associated protein kinase 1 (Homo sapiens) (UniProt P53355); details: Compound concentration 1000.0 nM
[8] = target: Tyrosine-protein kinase FRK (Homo sapiens) (UniProt P42685); details: Compound concentration 1000.0 nM
[9] = target: Homeodomain-interacting protein kinase 3 (Homo sapiens) (UniProt Q9H422); details: Compound concentration 1000.0 nM
[10] = target: Cyclin-dependent kinase 4 (Homo sapiens) (UniProt P11802); details: Compound concentration 1000.0 nM
[11] = target: Alpha-2C adrenergic receptor (Homo sapiens) (UniProt P18825); details: Compound concentration 10.0 uM
[12] = test system: Epidermal growth factor receptor (Homo sapiens), P00533 [UNDEFINED MUTATION]; details: Compound concentration 1000.0 nM
[13] = target: Cyclin-dependent kinase 16 (Homo sapiens) (UniProt Q00536); details: Compound concentration 1000.0 nM
[14] = test system: ALK tyrosine kinase receptor (Homo sapiens), Q9UM73 [L1196M]; details: Compound concentration 1000.0 nM
[15] = target: Mitogen-activated protein kinase 7 (Homo sapiens) (UniProt Q13164); details: Compound concentration 1000.0 nM
[16] = target: Delta-type opioid receptor (Homo sapiens) (UniProt P41143); details: Compound concentration 10.0 uM
[17] = target: Citron Rho-interacting kinase (Homo sapiens) (UniProt O14578); details: Compound concentration 1000.0 nM
[18] = target: Aurora kinase A (Homo sapiens) (UniProt O14965); details: Compound concentration 1000.0 nM
[19] = target: Serine/threonine-protein kinase SIK2 (Homo sapiens) (UniProt Q9H0K1); details: Compound concentration 1000.0 nM
[20] = target: Tyrosine-protein kinase Mer (Homo sapiens) (UniProt Q12866); details: Compound concentration 1000.0 nM
[21] = test system: Tyrosine-protein kinase ABL1 (Homo sapiens), P00519 [T315I]; details: Compound concentration 1000.0 nM
[22] = target: Cyclin-dependent kinase 11A (Homo sapiens) (UniProt Q9UQ88); details: Compound concentration 1000.0 nM
[23] = target: 5-hydroxytryptamine receptor 1A (Homo sapiens) (UniProt P08908); details: Compound concentration 10.0 uM
[24] = target: Mitogen-activated protein kinase kinase kinase 6 (Homo sapiens) (UniProt O95382); details: Compound concentration 1000.0 nM
[25] = target: Serine/threonine-protein kinase Nek9 (Homo sapiens) (UniProt Q8TD19); details: Compound concentration 1000.0 nM
[26] = test system: Tyrosine-protein kinase ABL1 (Homo sapiens), P00519 [H396P]; details: Compound concentration 1000.0 nM
[27] = target: Serine/threonine-protein kinase B-raf (Homo sapiens) (UniProt P15056); details: Compound concentration 1000.0 nM
[28] = target: Serine/threonine-protein kinase PLK1 (Homo sapiens) (UniProt P53350); details: Compound concentration 1000.0 nM
[29] = target: Proto-oncogene tyrosine-protein kinase ROS (Homo sapiens) (UniProt P08922); details: Compound concentration 1000.0 nM
[30] = target: Serine/threonine-protein kinase 3 (Homo sapiens) (UniProt Q13188); details: Compound concentration 1000.0 nM
[31] = target: Calcium/calmodulin-dependent protein kinase type II subunit beta (Homo sapiens) (UniProt Q13554); details: Compound concentration 1000.0 nM
[32] = target: Serine/threonine-protein kinase Nek4 (Homo sapiens) (UniProt P51957); details: Compound concentration 1000.0 nM
[33] = target: Myotonin-protein kinase (Homo sapiens) (UniProt Q09013); details: Compound concentration 1000.0 nM
[34] = target: Epidermal growth factor receptor (Homo sapiens) (UniProt P00533); details: Compound concentration 1000.0 nM
[35] = target: Tyrosine-protein kinase Blk (Homo sapiens) (UniProt P51451); details: Compound concentration 1000.0 nM
[36] = target: Membrane-associated tyrosine- and threonine-specific cdc2-inhibitory kinase (Homo sapiens) (UniProt Q99640); details: Compound concentration 1000.0 nM
[37] = target: Serine/threonine-protein kinase DCLK3 (Homo sapiens) (UniProt Q9C098); details: Compound concentration 1000.0 nM
[38] = target: MAP kinase-interacting serine/threonine-protein kinase 1 (Homo sapiens) (UniProt Q9BUB5); details: Compound concentration 1000.0 nM
[39] = target: 5-hydroxytryptamine receptor 2A (Homo sapiens) (UniProt P28223); details: Compound concentration 10.0 uM
[40] = target: Serine/threonine-protein kinase NLK (Homo sapiens) (UniProt Q9UBE8); details: Compound concentration 1000.0 nM
[41] = target: Serine/threonine-protein kinase Chk2 (Homo sapiens) (UniProt O96017); details: Compound concentration 1000.0 nM
[42] = target: Serine/threonine-protein kinase TAO2 (Homo sapiens) (UniProt Q9UL54); details: Compound concentration 1000.0 nM
[43] = target: Ribosomal protein S6 kinase alpha-6 (Homo sapiens) (UniProt Q9UK32); details: Compound concentration 1000.0 nM
[44] = target: Dual specificity mitogen-activated protein kinase kinase 7 (Homo sapiens) (UniProt O14733); details: Compound concentration 1000.0 nM
[45] = target: Interleukin-1 receptor-associated kinase 3 (Homo sapiens) (UniProt Q9Y616); details: Compound concentration 1000.0 nM
Interleukin-1 receptor-associated kinase 3 (Homo sapiens), sequence (Q9Y616 whole entry): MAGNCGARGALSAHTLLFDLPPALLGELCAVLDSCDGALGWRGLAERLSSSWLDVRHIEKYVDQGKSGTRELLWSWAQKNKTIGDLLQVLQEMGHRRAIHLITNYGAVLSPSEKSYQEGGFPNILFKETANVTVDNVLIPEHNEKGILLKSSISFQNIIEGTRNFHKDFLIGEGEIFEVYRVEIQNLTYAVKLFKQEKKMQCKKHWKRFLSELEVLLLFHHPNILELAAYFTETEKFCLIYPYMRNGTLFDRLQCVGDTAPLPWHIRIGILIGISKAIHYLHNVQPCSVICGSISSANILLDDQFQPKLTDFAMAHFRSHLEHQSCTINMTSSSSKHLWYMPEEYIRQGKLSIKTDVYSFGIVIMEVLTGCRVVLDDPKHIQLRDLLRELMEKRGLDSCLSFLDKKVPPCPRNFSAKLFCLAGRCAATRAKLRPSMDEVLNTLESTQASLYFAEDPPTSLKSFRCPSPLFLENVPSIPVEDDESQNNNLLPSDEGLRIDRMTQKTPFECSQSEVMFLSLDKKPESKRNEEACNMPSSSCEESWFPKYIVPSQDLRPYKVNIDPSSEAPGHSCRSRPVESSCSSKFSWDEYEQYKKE

Tyrosine-protein kinase FRK (Homo sapiens), sequence (P42685 whole entry): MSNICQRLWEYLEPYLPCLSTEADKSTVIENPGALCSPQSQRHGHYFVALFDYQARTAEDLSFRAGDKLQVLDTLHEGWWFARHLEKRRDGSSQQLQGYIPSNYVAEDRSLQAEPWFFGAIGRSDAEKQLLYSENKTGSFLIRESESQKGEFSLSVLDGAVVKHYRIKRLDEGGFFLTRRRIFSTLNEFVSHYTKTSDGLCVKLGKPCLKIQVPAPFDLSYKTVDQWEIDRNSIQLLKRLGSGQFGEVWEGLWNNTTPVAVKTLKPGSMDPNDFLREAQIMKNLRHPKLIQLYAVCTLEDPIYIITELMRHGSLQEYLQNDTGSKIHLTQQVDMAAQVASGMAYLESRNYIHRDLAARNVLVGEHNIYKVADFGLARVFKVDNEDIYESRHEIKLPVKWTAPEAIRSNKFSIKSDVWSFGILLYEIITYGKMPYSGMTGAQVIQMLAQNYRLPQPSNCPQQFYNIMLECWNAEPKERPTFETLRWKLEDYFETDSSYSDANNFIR
Alpha-2C adrenergic receptor (Homo sapiens), sequence (P18825 whole entry): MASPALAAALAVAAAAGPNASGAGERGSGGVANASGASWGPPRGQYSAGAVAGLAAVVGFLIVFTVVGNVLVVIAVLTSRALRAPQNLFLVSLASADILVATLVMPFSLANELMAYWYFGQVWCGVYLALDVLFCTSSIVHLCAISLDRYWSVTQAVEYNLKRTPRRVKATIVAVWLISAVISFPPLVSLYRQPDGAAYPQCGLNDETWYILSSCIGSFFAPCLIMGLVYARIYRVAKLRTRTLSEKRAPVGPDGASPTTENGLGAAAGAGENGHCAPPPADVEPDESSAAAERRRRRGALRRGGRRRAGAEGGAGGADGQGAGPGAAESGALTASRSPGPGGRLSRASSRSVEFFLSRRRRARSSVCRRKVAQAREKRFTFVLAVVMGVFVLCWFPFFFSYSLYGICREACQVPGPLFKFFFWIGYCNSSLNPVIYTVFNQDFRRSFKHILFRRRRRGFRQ
5-hydroxytryptamine receptor 1A (Homo sapiens), sequence (P08908 whole entry): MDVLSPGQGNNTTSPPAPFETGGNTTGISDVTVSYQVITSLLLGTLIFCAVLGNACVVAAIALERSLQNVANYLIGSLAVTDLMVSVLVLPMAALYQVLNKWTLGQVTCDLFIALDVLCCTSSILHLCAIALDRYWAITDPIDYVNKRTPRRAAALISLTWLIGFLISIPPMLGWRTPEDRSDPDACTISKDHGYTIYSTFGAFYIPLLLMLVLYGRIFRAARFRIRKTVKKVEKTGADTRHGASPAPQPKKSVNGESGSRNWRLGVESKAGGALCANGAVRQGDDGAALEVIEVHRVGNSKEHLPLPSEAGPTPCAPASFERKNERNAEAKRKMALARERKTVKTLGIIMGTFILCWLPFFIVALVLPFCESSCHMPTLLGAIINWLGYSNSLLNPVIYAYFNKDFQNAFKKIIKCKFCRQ
Serine/threonine-protein kinase PLK3 (Homo sapiens), sequence (Q9H4B4 whole entry, looked up): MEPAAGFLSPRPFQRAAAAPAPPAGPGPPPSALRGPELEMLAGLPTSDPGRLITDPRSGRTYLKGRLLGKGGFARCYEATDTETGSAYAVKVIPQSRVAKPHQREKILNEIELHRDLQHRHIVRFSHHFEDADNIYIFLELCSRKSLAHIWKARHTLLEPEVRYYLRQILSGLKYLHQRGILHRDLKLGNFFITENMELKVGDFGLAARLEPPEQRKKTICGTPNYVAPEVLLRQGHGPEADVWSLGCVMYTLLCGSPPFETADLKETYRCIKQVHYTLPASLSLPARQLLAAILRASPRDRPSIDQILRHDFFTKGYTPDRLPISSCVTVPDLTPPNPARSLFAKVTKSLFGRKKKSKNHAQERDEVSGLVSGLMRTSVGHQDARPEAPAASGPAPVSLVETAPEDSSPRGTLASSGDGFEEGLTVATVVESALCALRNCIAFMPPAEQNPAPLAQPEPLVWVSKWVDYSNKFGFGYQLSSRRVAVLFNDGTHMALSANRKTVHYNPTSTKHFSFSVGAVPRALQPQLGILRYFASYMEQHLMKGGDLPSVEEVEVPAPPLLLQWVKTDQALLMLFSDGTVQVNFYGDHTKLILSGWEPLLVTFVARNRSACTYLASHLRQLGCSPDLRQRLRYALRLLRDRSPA
Tyrosine-protein kinase Blk (Homo sapiens), sequence (P51451 2-505 limits assumed): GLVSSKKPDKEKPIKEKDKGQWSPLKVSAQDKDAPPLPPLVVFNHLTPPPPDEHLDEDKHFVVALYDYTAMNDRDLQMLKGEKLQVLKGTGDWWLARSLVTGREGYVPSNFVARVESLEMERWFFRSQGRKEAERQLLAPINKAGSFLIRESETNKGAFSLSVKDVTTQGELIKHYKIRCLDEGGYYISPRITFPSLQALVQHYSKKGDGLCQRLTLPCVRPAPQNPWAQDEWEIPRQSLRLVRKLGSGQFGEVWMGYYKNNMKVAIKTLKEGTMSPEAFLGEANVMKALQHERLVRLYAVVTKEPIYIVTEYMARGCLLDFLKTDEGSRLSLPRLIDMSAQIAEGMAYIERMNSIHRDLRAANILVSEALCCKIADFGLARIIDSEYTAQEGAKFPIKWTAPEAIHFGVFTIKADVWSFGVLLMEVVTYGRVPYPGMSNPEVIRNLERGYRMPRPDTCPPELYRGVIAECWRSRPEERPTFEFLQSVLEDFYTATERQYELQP
Serine/threonine-protein kinase PLK1 (Homo sapiens), sequence (P53350 whole entry): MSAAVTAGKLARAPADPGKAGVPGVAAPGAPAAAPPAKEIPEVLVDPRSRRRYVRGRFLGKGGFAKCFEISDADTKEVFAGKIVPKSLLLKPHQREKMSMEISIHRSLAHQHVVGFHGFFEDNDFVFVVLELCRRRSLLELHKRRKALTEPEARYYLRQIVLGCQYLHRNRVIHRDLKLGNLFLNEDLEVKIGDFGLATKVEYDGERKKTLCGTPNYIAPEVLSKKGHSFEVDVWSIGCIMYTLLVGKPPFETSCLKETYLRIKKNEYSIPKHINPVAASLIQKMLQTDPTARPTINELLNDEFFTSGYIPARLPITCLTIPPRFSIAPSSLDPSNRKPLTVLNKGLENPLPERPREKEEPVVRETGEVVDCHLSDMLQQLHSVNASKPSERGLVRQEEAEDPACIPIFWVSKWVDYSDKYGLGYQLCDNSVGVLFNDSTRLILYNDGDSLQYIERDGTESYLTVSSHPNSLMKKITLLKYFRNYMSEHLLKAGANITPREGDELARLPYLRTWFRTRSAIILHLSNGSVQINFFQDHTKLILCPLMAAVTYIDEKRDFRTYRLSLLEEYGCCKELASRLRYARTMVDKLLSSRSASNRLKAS
Dual specificity mitogen-activated protein kinase kinase 1 (Homo sapiens), sequence (Q02750 whole entry): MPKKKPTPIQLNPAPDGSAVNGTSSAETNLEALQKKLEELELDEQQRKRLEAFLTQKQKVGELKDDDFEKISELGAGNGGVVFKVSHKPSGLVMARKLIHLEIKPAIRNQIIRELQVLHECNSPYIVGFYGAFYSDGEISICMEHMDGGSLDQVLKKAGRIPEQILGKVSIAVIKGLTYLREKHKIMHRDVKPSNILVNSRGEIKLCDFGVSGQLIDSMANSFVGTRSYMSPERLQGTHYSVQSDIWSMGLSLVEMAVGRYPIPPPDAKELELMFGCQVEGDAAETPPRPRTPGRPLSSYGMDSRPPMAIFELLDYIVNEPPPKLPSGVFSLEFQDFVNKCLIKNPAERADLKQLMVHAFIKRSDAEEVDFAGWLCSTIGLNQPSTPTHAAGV
Serine/threonine-protein kinase NLK (Homo sapiens), sequence (Q9UBE8 whole entry): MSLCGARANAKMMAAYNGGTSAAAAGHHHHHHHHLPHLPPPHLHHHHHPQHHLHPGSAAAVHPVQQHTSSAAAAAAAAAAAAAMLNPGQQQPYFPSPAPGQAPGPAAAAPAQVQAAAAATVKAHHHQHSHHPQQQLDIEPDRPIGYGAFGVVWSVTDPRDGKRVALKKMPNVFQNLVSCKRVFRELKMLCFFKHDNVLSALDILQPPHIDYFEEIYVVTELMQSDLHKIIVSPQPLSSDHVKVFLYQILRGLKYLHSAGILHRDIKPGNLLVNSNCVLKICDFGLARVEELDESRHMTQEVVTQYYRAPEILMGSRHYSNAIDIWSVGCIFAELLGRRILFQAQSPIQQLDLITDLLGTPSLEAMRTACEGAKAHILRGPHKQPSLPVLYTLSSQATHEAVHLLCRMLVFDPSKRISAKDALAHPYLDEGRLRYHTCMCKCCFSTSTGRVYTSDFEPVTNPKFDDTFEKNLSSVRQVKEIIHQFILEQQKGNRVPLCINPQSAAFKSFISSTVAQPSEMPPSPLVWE
Cyclin-dependent kinase 4 (Homo sapiens), sequence (P11802 whole entry): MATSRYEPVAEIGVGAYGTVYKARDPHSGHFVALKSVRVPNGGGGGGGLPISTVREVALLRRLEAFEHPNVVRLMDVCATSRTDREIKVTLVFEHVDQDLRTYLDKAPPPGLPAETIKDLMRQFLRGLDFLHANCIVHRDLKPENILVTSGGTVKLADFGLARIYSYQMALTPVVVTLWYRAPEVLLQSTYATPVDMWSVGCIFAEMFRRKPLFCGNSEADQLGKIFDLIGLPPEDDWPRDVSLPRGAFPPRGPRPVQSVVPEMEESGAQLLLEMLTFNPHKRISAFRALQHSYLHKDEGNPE

CCC(=N\O)/C(C)=C/c1ccc(F)c(C)c1 [A-226]
inactive: residual activity [1] 95% | residual activity [2] 97% | residual activity [3] 96% | residual activity [4] 75% | residual activity [5] 100% | residual activity [6] 100% | residual activity [7] 97% | residual activity [8] 80% | residual activity [9] 100% | residual activity [10] 100% | inhibition [11] 15.7% | residual activity [12] 69% | residual activity [13] 100% | residual activity [14] 100% | residual activity [15] 100% | inhibition [16] 2.53% | residual activity [17] 70% | residual activity [18] 82% | residual activity [19] 100% | residual activity [20] 100% | residual activity [21] 100% | residual activity [22] 69% | inhibition [23] 1.12% | residual activity [24] 100% | residual activity [25] 100% | residual activity [26] 100% | residual activity [27] 79% | residual activity [28] 82% | residual activity [29] 88% | residual activity [30] 100% | residual activity [31] 100% | residual activity [32] 67% | residual activity [33] 72% | residual activity [34] 100% | residual activity [35] 91% | residual activity [36] 61% | residual activity [37] 100% | residual activity [38] 100% | inhibition [39] 40.8% | residual activity [40] 56% | residual activity [41] 90% | residual activity [42] 100% | residual activity [43] 100% | residual activity [44] 100% | residual activity [45] 94%

CCC(=N\O)/C(C)=C/c1ccc(F)cc1 [A-079]
inactive: residual activity [1] 95% | residual activity [2] 76% | residual activity [3] 82% | residual activity [4] 100% | residual activity [5] 86% | residual activity [6] 85% | residual activity [7] 100% | residual activity [8] 100% | residual activity [9] 78% | residual activity [10] 74% | inhibition [11] 8.29% | residual activity [12] 61% | residual activity [13] 86% | residual activity [14] 71% | residual activity [15] 88% | inhibition [16] -7.17% | residual activity [17] 70% | residual activity [18] 100% | residual activity [19] 100% | residual activity [20] 100% | residual activity [21] 75% | residual activity [22] 94% | inhibition [23] 6.81% | residual activity [24] 63% | residual activity [25] 79% | residual activity [26] 100% | residual activity [27] 87% | residual activity [28] 93% | residual activity [29] 87% | residual activity [30] 100% | residual activity [31] 97% | residual activity [32] 83% | residual activity [33] 88% | residual activity [34] 60% | residual activity [35] 87% | residual activity [36] 100% | residual activity [37] 77% | residual activity [38] 56% | inhibition [39] 21.7% | residual activity [40] 100% | residual activity [41] 85% | residual activity [42] 94% | residual activity [43] 81% | residual activity [44] 79% | residual activity [45] 100%
